Assay: Biodistribution of the nano-emulsion of Example 1.1 (radioactivity and fluorescence per organ)
Assay type: in vivo
Experimental: In the following examples, the radioactivity was counted with the TRiCarb Counter (Ref: Packard, Liquid Scintillation Analyzers; Models 2200CA).
Fluobeam 700 (Fluoptics) is the apparatus with which the whole of the organs from the biodistribution were analyzed in fluorescence as well as the one with which the biodistribution kinetics of the nano-emulsions were established in vivo. This imaging system allows viewing of the fluorescence in spectral bands from 700 to 850 nm for a 650 nm excitation. The apparatus consists of an electric case containing the laser of class 3B, its power supply and an optical head containing the CCD camera.
The nano-emulsions of Example 1 were injected into FVB female and male mice. As a comparison, a mixture of three tracers ([3H]CHE, [14C]CO and DiD) (not formulated as a nano-emulsion) was injected in order to observe the distribution of the tracers in the absence of droplets being used as a distribution carrier.
Tables 6 to 14 provide the biodistribution results of each tracer ([3H]CHE, [14C]CO and DiD) expressed as a percentage of the dose injected per gram of tissue (or [3H]CHE and [14C]CO) or as fluorescence intensity (for DiD) depending on the organ of the mouse, 15 minutes (Table 6), 2 hours (Table 7), 4 hours (Table 8), 6 hours (Table 9), 16 hours (Table 10), 24 hours (Table 11), 72 hours (Table 12), 120 hours (Table 13) and 168 hours (Table 14), after injection into an FVB female mouse of the nano-emulsion of Example 1.1. (nano-emulsion according to the invention comprising the three tracers ([3H]CHE, [14C]CO and DiD).

[1] = 15 min after injection of nano-emulsion of Example 1.1, FVB female mouse
[2] = 2 h after injection of nano-emulsion of Example 1.1, FVB female mouse
[3] = 4 h after injection of nano-emulsion of Example 1.1, FVB female mouse
[4] = 16 h (Table 9 head) after injection of nano-emulsion of Example 1.1, FVB female mouse
[5] = 24 h (Table 10 head) after injection of nano-emulsion of Example 1.1, FVB female mouse
[6] = 48 h (Table 11 head) after injection of nano-emulsion of Example 1.1, FVB female mouse
[7] = 72 h after injection of nano-emulsion of Example 1.1, FVB female mouse
[8] = 120 h after injection of nano-emulsion of Example 1.1, FVB female mouse
[9] = 168 h after injection of nano-emulsion of Example 1.1, FVB female mouse

CCCCCCCCCCCCCCCCO[C@H]1CC[C@@]2(C)C(=CC[C@H]3[C@@H]4CC[C@H]([C@H](C)CCCC(C)C)[C@@]4(C)CC[C@@H]32)C1 [[3H]CHE, cholesteryl hexadecylether]
biodistribution, Adrenal glands (MEAN) [1]: 10.60 % of injected dose per gram of | biodistribution, Brain (MEAN) [1]: 0.476 % of injected dose per gram of | biodistribution, Fat (MEAN) [1]: 1.10 % of injected dose per gram of | biodistribution, Heart (MEAN) [1]: 8.303 % of injected dose per gram of | biodistribution, Intestine (MEAN) [1]: 1.71 % of injected dose per gram of | biodistribution, Kidney (MEAN) [1]: 4.09 % of injected dose per gram of | biodistribution, Liver (MEAN) [1]: 8.26 % of injected dose per gram of | biodistribution, Lung (MEAN) [1]: 3.91 % of injected dose per gram of | biodistribution, Muscle (MEAN) [1]: 0.675 % of injected dose per gram of | biodistribution, Ovary (MEAN) [1]: 5.38 % of injected dose per gram of | biodistribution, Pancreas (MEAN) [1]: 1.233 % of injected dose per gram of | biodistribution, Salivary glands (MEAN) [1]: 1.157 % of injected dose per gram of | biodistribution, Spleen (MEAN) [1]: 3.63 % of injected dose per gram of | biodistribution, Uterus (MEAN) [1]: 0.90 % of injected dose per gram of | biodistribution, Adrenal glands (MEAN) [2]: 21.12 % of injected dose per gram of | biodistribution, Brain (MEAN) [2]: 0.26 % of injected dose per gram of | biodistribution, Fat (MEAN) [2]: 0.76 % of injected dose per gram of | biodistribution, Heart (MEAN) [2]: 4.64 % of injected dose per gram of | biodistribution, Intestine (MEAN) [2]: 2.44 % of injected dose per gram of | biodistribution, Kidneys (MEAN) [2]: 3.83 % of injected dose per gram of | biodistribution, Liver (MEAN) [2]: 31.09 % of injected dose per gram of | biodistribution, Lung (MEAN) [2]: 4.44 % of injected dose per gram of | biodistribution, Muscle (MEAN) [2]: 0.45 % of injected dose per gram of | biodistribution, Ovary (MEAN) [2]: 29.28 % of injected dose per gram of | biodistribution, Pancreas (MEAN) [2]: 1.43 % of injected dose per gram of | biodistribution, Salivary glands (MEAN) [2]: 1.42 % of injected dose per gram of | biodistribution, Spleen (MEAN) [2]: 5.10 % of injected dose per gram of | biodistribution, Uterus (MEAN) [2]: 2.23 % of injected dose per gram of | biodistribution, Adrenal glands (MEAN) [3]: 28.13 % of injected dose per gram of | biodistribution, Brain (MEAN) [3]: 0.19 % of injected dose per gram of | biodistribution, Fat (MEAN) [3]: 1.40 % of injected dose per gram of | biodistribution, Heart (MEAN) [3]: 4.94 % of injected dose per gram of | biodistribution, Intestine (MEAN) [3]: 2.46 % of injected dose per gram of | biodistribution, Kidney (MEAN) [3]: 2.51 % of injected dose per gram of | biodistribution, Liver (MEAN) [3]: 37.43 % of injected dose per gram of | biodistribution, Lungs (MEAN) [3]: 4.02 % of injected dose per gram of | biodistribution, Muscle (MEAN) [3]: 0.41 % of injected dose per gram of | biodistribution, Ovary (MEAN) [3]: 39.41 % of injected dose per gram of | biodistribution, Pancreas (MEAN) [3]: 1.01 % of injected dose per gram of | biodistribution, Salivary glands (MEAN) [3]: 1.09 % of injected dose per gram of | biodistribution, Spleen (MEAN) [3]: 5.00 % of injected dose per gram of | biodistribution, Uterus (MEAN) [3]: 1.69 % of injected dose per gram of | biodistribution, Adrenal glands (MEAN) [4]: 43.16 % of injected dose per gram of | biodistribution, Brain (MEAN) [4]: 0.13 % of injected dose per gram of | biodistribution, Fat (MEAN) [4]: 1.36 % of injected dose per gram of | biodistribution, Heart (MEAN) [4]: 3.49 % of injected dose per gram of | biodistribution, Intestine (MEAN) [4]: 4.87 % of injected dose per gram of | biodistribution, Kidney (MEAN) [4]: 2.06 % of injected dose per gram of | biodistribution, Liver (MEAN) [4]: 47.67 % of injected dose per gram of | biodistribution, Lungs (MEAN) [4]: 4.63 % of injected dose per gram of | biodistribution, Muscle (MEAN) [4]: 0.76 % of injected dose per gram of | biodistribution, Ovary (MEAN) [4]: 52.26 % of injected dose per gram of | biodistribution, Pancreas (MEAN) [4]: 1.17 % of injected dose per gram of | biodistribution, Salivary glands (MEAN) [4]: 1.27 % of injected dose per gram of | biodistribution, Spleen (MEAN) [4]: 7.48 % of injected dose per gram of | biodistribution, Uterus (MEAN) [4]: 3.91 % of injected dose per gram of | biodistribution, Adrenal glands (MEAN) [5]: 39.68 % of injected dose per gram of | biodistribution, Brain (MEAN) [5]: 0.09 % of injected dose per gram of | biodistribution, Fat (MEAN) [5]: 0.88 % of injected dose per gram of | biodistribution, Heart (MEAN) [5]: 3.53 % of injected dose per gram of | biodistribution, Intestine (MEAN) [5]: 2.78 % of injected dose per gram of | biodistribution, Kidney (MEAN) [5]: 1.50 % of injected dose per gram of | biodistribution, Liver (MEAN) [5]: 48.76 % of injected dose per gram of | biodistribution, Lung (MEAN) [5]: 3.21 % of injected dose per gram of | biodistribution, Muscle (MEAN) [5]: 0.46 % of injected dose per gram of | biodistribution, Ovary (MEAN) [5]: 38.06 % of injected dose per gram of | biodistribution, Pancreas (MEAN) [5]: 0.64 % of injected dose per gram of | biodistribution, Salivary glands (MEAN) [5]: 1.40 % of injected dose per gram of | biodistribution, Spleen (MEAN) [5]: 7.50 % of injected dose per gram of | biodistribution, Uterus (MEAN) [5]: 1.82 % of injected dose per gram of | biodistribution, Adrenal glands (MEAN) [6]: 42.26 % of injected dose per gram of | biodistribution, Brain (MEAN) [6]: 0.08 % of injected dose per gram of | biodistribution, Fat (MEAN) [6]: 1.05 % of injected dose per gram of | biodistribution, Heart (MEAN) [6]: 3.52 % of injected dose per gram of | biodistribution, Intestine (MEAN) [6]: 4.43 % of injected dose per gram of | biodistribution, Kidney (MEAN) [6]: 1.63 % of injected dose per gram of | biodistribution, Liver (MEAN) [6]: 58.43 % of injected dose per gram of | biodistribution, Lungs (MEAN) [6]: 3.91 % of injected dose per gram of | biodistribution, Muscle (MEAN) [6]: 0.36 % of injected dose per gram of | biodistribution, Ovary (MEAN) [6]: 36.42 % of injected dose per gram of | biodistribution, Pancreas (MEAN) [6]: 1.00 % of injected dose per gram of | biodistribution, Salivary glands (MEAN) [6]: 1.09 % of injected dose per gram of | biodistribution, Spleen (MEAN) [6]: 12.32 % of injected dose per gram of | biodistribution, Uterus (MEAN) [6]: 3.75 % of injected dose per gram of | biodistribution, Adrenal glands (MEAN) [7]: 36.92 % of injected dose per gram of | biodistribution, Brain (MEAN) [7]: 0.08 % of injected dose per gram of | biodistribution, Fat (MEAN) [7]: 0.85 % of injected dose per gram of | biodistribution, Heart (MEAN) [7]: 2.98 % of injected dose per gram of | biodistribution, Intestine (MEAN) [7]: 3.58 % of injected dose per gram of | biodistribution, Kidney (MEAN) [7]: 1.27 % of injected dose per gram of | biodistribution, Liver (MEAN) [7]: 39.73 % of injected dose per gram of | biodistribution, Lungs (MEAN) [7]: 2.95 % of injected dose per gram of | biodistribution, Muscle (MEAN) [7]: 0.22 % of injected dose per gram of | biodistribution, Ovary (MEAN) [7]: 25.11 % of injected dose per gram of | biodistribution, Pancreas (MEAN) [7]: 0.74 % of injected dose per gram of | biodistribution, Salivary glands (MEAN) [7]: 1.10 % of injected dose per gram of | biodistribution, Spleen (MEAN) [7]: 7.65 % of injected dose per gram of | biodistribution, Uterus (MEAN) [7]: 5.63 % of injected dose per gram of | biodistribution, Adrenal gland (MEAN) [8]: 41.92 % of injected dose per gram of | biodistribution, Brain (MEAN) [8]: 0.08 % of injected dose per gram of | biodistribution, Fat (MEAN) [8]: 0.68 % of injected dose per gram of | biodistribution, Heart (MEAN) [8]: 2.59 % of injected dose per gram of | biodistribution, Intestine (MEAN) [8]: 3.60 % of injected dose per gram of | biodistribution, Kidney (MEAN) [8]: 1.29 % of injected dose per gram of | biodistribution, Liver (MEAN) [8]: 39.13 % of injected dose per gram of | biodistribution, Lungs (MEAN) [8]: 3.30 % of injected dose per gram of | biodistribution, Muscle (MEAN) [8]: 0.27 % of injected dose per gram of | biodistribution, Ovary (MEAN) [8]: 16.92 % of injected dose per gram of | biodistribution, Pancreas (MEAN) [8]: 1.00 % of injected dose per gram of | biodistribution, Salivary glands (MEAN) [8]: 2.14 % of injected dose per gram of | biodistribution, Spleen (MEAN) [8]: 9.69 % of injected dose per gram of | biodistribution, Uterus (MEAN) [8]: 4.99 % of injected dose per gram of | biodistribution, Adrenal glands (MEAN) [9]: 29.30 % of injected dose per gram of | biodistribution, Brain (MEAN) [9]: 0.07 % of injected dose per gram of | biodistribution, Fat (MEAN) [9]: 0.99 % of injected dose per gram of | biodistribution, Heart (MEAN) [9]: 2.19 % of injected dose per gram of | biodistribution, Intestine (MEAN) [9]: 2.80 % of injected dose per gram of | biodistribution, Kidneys (MEAN) [9]: 1.44 % of injected dose per gram of | biodistribution, Liver (MEAN) [9]: 32.70 % of injected dose per gram of | biodistribution, Lungs (MEAN) [9]: 1.70 % of injected dose per gram of | biodistribution, Muscle (MEAN) [9]: 0.37 % of injected dose per gram of | biodistribution, Ovary (MEAN) [9]: 20.61 % of injected dose per gram of | biodistribution, Pancreas (MEAN) [9]: 0.79 % of injected dose per gram of | biodistribution, Salivary glands (MEAN) [9]: 2.01 % of injected dose per gram of | biodistribution, Spleen (MEAN) [9]: 10.71 % of injected dose per gram of | biodistribution, Uterus (MEAN) [9]: 4.86 % of injected dose per gram of

Reference: US9707305B2, “Formulas for diagnosing and treating hormone-dependent cancers and cancers of the organs responsible for steroid hormone synthesis” (Commissariat à l'énergie atomique et aux énergies …, priority 2011, dated 2017)
